The compounds below were run against Human TASK-1 channels (Homo sapiens (Human), UniProt O14649) (assay: Activity on the TASK-1 channel in Xenopus oocytes (two-microelectrode voltage clamp)). Details: 5 μM; percentage inhibition of TASK-1 control current, Xenopus oocytes.
Type: cell-based
Protocol: Determination of the activity on the TASK-1 channel in Xenopus oocytes:
Human TASK-1 channels were expressed in Xenopus oocytes. For this purpose, oocytes were isolated from Xenopus laevis and defolliculated. Subsequently, TASK-1-encoding RNA synthesized in vitro was injected into oocytes. After two days of TASK-1 protein expression, TASK-1 currents were measured by two-microelectrode voltage clamp. Data were acquired and analyzed using a TEC-10cx amplifier (NPI Electronic, Tamm, Germany) connected to an ITC-16 interface (Instrutech Corp., Long Island, USA) and Pulse software (HEKA Elektronik, Lambrecht, Germany). Oocytes were clamped to −90 mV and TASK-1 mediated currents were measured during 500 ms voltage pulses to 40 mV. Oocytes were continuously superfused with ND96 buffer containing: NaCl 96 mM, KCl2 mM, CaCl2 1.8 mM, MgCl2 1 mM, HEPES 5 mM (pH adjusted to 7.4 with NaOH). All experiments were performed at room temperature.
Test substances were consecutively added to the bath solution at rising concentrations. Compound effects were calculated as the percentage inhibition of
TASK-1 control current before compound application. IC50 values were obtained by fitting the data to the general dose-response equation.

Chain of Human TASK-1 channels (O14649 whole entry): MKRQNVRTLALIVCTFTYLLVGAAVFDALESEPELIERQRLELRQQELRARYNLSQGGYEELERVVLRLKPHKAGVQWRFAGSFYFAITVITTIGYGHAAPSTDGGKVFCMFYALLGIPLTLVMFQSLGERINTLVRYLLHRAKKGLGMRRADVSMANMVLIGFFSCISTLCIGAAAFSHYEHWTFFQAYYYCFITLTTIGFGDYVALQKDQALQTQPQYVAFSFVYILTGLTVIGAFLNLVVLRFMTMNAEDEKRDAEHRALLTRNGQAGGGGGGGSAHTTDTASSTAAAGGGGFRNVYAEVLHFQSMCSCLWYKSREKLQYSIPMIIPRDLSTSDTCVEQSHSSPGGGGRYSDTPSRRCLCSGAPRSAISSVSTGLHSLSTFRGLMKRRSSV

| Compound | inhibition at 5 µM [%] |
| --- | --- |
| CC(C)(C)C(=O)N1CCc2c(c(-c3cccc(C#N)c3)nn2[C@@H]2c3cc(F)cc(F)c3C[C@H]2O)C1 [Example 14d, 3-[1-((1R,2R)-4,6-Difluoro-2-hydroxy-indan-1-yl)-5-(2,2-dimethyl-propionyl)-4,5,6,7-tetrahydro-1H-pyrazolo[4,3-c]pyridin-3-yl]-benzonitrile] | 94 |
| COCC(=O)N1CCc2c(c(-c3cccc(C#N)c3)nn2[C@@H]2c3cc(F)cc(F)c3C[C@H]2O)C1 [Example 14e, 3-[1-((1R,2R)-4,6-Difluoro-2-hydroxy-indan-1-yl)-5-(2-methoxy-acetyl)-4,5,6,7-tetrahydro-1H-pyrazolo[4,3-c]pyridin-3-yl]-benzonitrile] | 72 |
| CCC(=O)O[C@@H]1Cc2c(F)cc(F)cc2[C@H]1n1nc(-c2cccc(C#N)c2)c2c1CCN(C(=O)CC)C2 [Example 15a, Propionic acid (1R,2R)-1-[3-(3-cyano-phenyl)-5-propionyl-4,5,6,7-tetrahydro-pyrazolo[4,3-c]pyridin-1-yl]-4,6-difluoro-indan-2-yl ester] | 51 |
| NC(=O)c1cccc(-c2nn([C@@H]3c4cc(F)cc(F)c4C[C@H]3O)c3c2CN(C(=O)C2CC2)CC3)c1 [Example 15b, 3-[5-Cyclopropanecarbonyl-1-((1R,2R)-4,6-difluoro-2-hydroxy-indan-1-yl)-4,5,6,7-tetrahydro-1H-pyrazolo[4,3-c]pyridin-3-yl]-benzamide] | 24 |

Further lines, results first:

| inhibition at 5 µM [%] | Compound |
| --- | --- |
| 91 | N#Cc1cccc(-c2nn([C@@H]3c4cc(F)cc(F)c4C[C@H]3O)c3c2CN(CCC(F)(F)F)CC3)c1 [Example 18c, 3-[1-((1R,2R)-4,6-Difluoro-2-hydroxy-indan-1-yl)-5-(3,3,3-trifluoro-propyl)-4,5,6,7-tetrahydro-1H-pyrazolo[4,3-c]pyridin-3-yl]-benzonitrile] |
| 83 | COCCN1CCc2c(c(-c3cccc(C#N)c3)nn2[C@@H]2c3cc(F)cc(F)c3C[C@H]2O)C1 [Example 18d, 3-[1-((1R,2R)-4,6-Difluoro-2-hydroxy-indan-1-yl)-5-(2-methoxy-ethyl)-4,5,6,7-tetrahydro-1H-pyrazolo[4,3-c]pyridin-3-yl]-benzonitrile] |
| 81 | N#Cc1cccc(-c2nn([C@@H]3c4cc(F)cc(F)c4C[C@H]3O)c3c2CN(CC2CC2)CC3)c1 [Example 18e, 3-[5-Cyclopropylmethyl-1-((1R,2R)-4,6-difluoro-2-hydroxy-indan-1-yl)-4,5,6,7-tetrahydro-1H-pyrazolo[4,3-c]pyridin-3-yl]-benzonitrile] |
| 67 | CCCN1CCc2c(c(-c3ccc(F)cc3)nn2[C@@H]2c3cc(F)cc(F)c3C[C@H]2O)C1 [Example 18f, (1R,2R)-4,6-Difluoro-1-[3-(4-fluoro-phenyl)-5-propyl-4,5,6,7-tetrahydro-pyrazolo[4,3-c]pyridin-1-yl]-indan-2-ol] |
| 56 | COCCN1CCc2c(c(-c3ccc(F)cc3)nn2[C@@H]2c3cc(F)cc(F)c3C[C@H]2O)C1 [Example 18g] |
| 39 | NC(=O)c1cccc(-c2nn([C@@H]3c4cc(F)cc(F)c4C[C@H]3O)c3c2CN(CCC(F)(F)F)CC3)c1 [Example 18h, 3-[1-((1R,2R)-4,6-Difluoro-2-hydroxy-indan-1-yl)-5-(3,3,3-trifluoro-propyl)-4,5,6,7-tetrahydro-1H-pyrazolo[4,3-c]pyridin-3-yl]-benzamide] |
| 82 | CCc1cc(F)cc2c1C[C@@H](O)[C@@H]2n1nc(-c2cccc(C#N)c2)c2c1CCN(C(C)=O)C2 [Example 19b, 3-[5-Acetyl-1-((1R,2R)-4-ethyl-6-fluoro-2-hydroxy-indan-1-yl)-4,5,6,7-tetrahydro-1H-pyrazolo[4,3-c]pyridin-3-yl]-benzonitrile] |

Same assay, conditions: human TASK-1 expressed in Xenopus oocytes, currents during 500 ms pulses to 40 mV, room temperature

| Compound | IC50 [nM] |
| --- | --- |
| CC(=O)N1CCc2c(c(-c3cccc(Cl)c3)nn2[C@@H]2c3cc(F)cc(F)c3C[C@H]2O)C1 [Example 11v, 1-[3-(3-Chloro-phenyl)-1-((1R,2R)-4,6-difluoro-2-hydroxy-indan-1-yl)-1,4,6,7-tetrahydro-pyrazolo[4,3-c]pyridin-5-yl]-ethanone] | 1180 |
| CC(=O)N1CCc2c(c(-c3ccc(C)cc3)nn2[C@@H]2c3cc(F)cc(F)c3C[C@H]2O)C1 [Example 11x, 1-[1-((1R,2R)-4,6-Difluoro-2-hydroxy-indan-1-yl)-3-p-tolyl-1,4,6,7-tetrahydro-pyrazolo[4,3-c]pyridin-5-yl]-ethanone] | 1520 |
| COc1cc(-c2nn([C@@H]3c4cc(F)cc(F)c4C[C@H]3O)c3c2CN(C(C)=O)CC3)ccc1F [Example 11y, 1-[1-((1R,2R)-4,6-Difluoro-2-hydroxy-indan-1-yl)-3-(4-fluoro-3-methoxy-phenyl)-1,4,6,7-tetrahydro-pyrazolo[4,3-c]pyridin-5-yl]-ethanone] | 1920 |
| CC(=O)N1CCc2c(c(-c3ccc(F)c(C#N)c3)nn2[C@@H]2c3cc(F)cc(F)c3C[C@H]2O)C1 [Example 11z, 5-[5-Acetyl-1-((1R,2R)-4,6-difluoro-2-hydroxy-indan-1-yl)-4,5,6,7-tetrahydro-1H-pyrazolo[4,3-c]pyridin-3-yl]-2-fluoro-benzonitrile] | 2130 |
| CC(=O)N1CCc2c(c(-c3ccc(F)cc3)nn2[C@@H]2CCc3ccccc32)C1 [Example 12a, 1-[(R)-3-(4-Fluoro-phenyl)-1-indan-1-yl-1,4,6,7-tetrahydro-pyrazolo[4,3-c]pyridin-5-yl]-ethanone] | 712 |
| CC(=O)N1CCc2c(c(-c3ccc(F)cc3)nn2[C@H]2CCc3ccccc32)C1 [Example 12b, 1-[(S)-3-(4-Fluoro-phenyl)-1-indan-1-yl-1,4,6,7-tetrahydro-pyrazolo[4,3-c]pyridin-5-yl]-ethanone] | 479 |
| CCC(=O)N1CCc2c(c(-c3cccc(C#N)c3)nn2[C@@H]2c3cc(F)cc(F)c3C[C@H]2O)C1 [Example 14a, 3-[1-((1R,2R)-4,6-Difluoro-2-hydroxy-indan-1-yl)-5-propionyl-4,5,6,7-tetrahydro-1H-pyrazolo[4,3-c]pyridin-3-yl]-benzonitrile] | 70 |
| N#Cc1cccc(-c2nn([C@@H]3c4cc(F)cc(F)c4C[C@H]3O)c3c2CN(C(=O)C2CC2)CC3)c1 [Example 14b, 3-[5-Cyclopropanecarbonyl-1-((1R,2R)-4,6-difluoro-2-hydroxy-indan-1-yl)-4,5,6,7-tetrahydro-1H-pyrazolo[4,3-c]pyridin-3-yl]-benzonitrile] | 83.1 |
| CC(C)C(=O)N1CCc2c(c(-c3cccc(C#N)c3)nn2[C@@H]2c3cc(F)cc(F)c3C[C@H]2O)C1 [Example 14c, 3-[1-((1R,2R)-4,6-Dif1uoro-2-hydroxy-indan-1-yl)-5-isobutyryl-4,5,6,7-tetrahydro-1H-pyrazolo[4,3-c]pyridin-3-yl]-benzonitrile] | 250 |
| CO[C@@H]1Cc2c(F)cc(F)cc2[C@H]1n1nc(-c2cccc(C#N)c2)c2c1CCN(C(C)=O)C2 [Example 16a, 3-[5-Acetyl-1-((1R,2R)-4,6-difluoro-2-methoxy-indan-1-yl)-4,5,6,7-tetrahydro-1H-pyrazolo[4,3-c]pyridin-3-yl]-benzonitrile] | 446 |
| CO[C@@H]1Cc2c(F)cc(F)cc2[C@H]1n1nc(-c2ccc(F)cc2)c2c1CCN(C(C)=O)C2 [Example 16b, 1-[1-((1R,2R)-4,6-Difluoro-2-methoxy-indan-1-yl)-3-(4-fluoro-phenyl)-1,4,6,7-tetrahydro-pyrazolo[4,3-c]pyridin-5-yl]-ethanone] | 1160 |

Further lines, results first:

| IC50 [nM] | Compound |
| --- | --- |
| 260 | COC(=O)N1CCc2c(c(-c3cccc(C#N)c3)nn2[C@@H]2c3cc(F)cc(F)c3C[C@H]2O)C1 [Example 17a, 3-(3-Cyano-phenyl)-1-((1R,2R)-4,6-difluoro-2-hydroxy-indan-1-yl)-1,4,6,7-tetrahydro-pyrazolo[4,3-c]pyridine-5-carboxylic acid methyl ester] |
| 500 | O[C@@H]1Cc2c(F)cc(F)cc2[C@H]1n1nc(-c2ccc(F)cc2)c2c1CCN(CC1CC1)C2 [Example 18a, (1R,2R)-1-[5-cyclopropylmethyl-3-(4-fluoro-phenyl)-4,5,6,7-tetrahydro-pyrazolo[4,3-c]pyridin-1-yl]-4,6-difluoro-indan-2-ol] |
| 8190 | CC(C)N1CCc2c(c(-c3ccc(F)cc3)nn2[C@@H]2c3cc(F)cc(F)c3C[C@H]2O)C1 [Example 18b, (1R,2R)-4,6-Difluoro-1-[3-(4-fluoro-phenyl)-5-isopropyl-4,5,6,7-tetrahydro-pyrazolo[4,3-c]pyridin-1-yl]-indan-2-ol] |
| 231 | CC(=O)N1CCc2c(c(-c3cccc(C#N)c3)nn2[C@@H]2c3cc(F)cc(C)c3C[C@H]2O)C1 [Example 19a, 3-[5-Acetyl-1-((1R,2R)-6-fluoro-2-hydroxy-4-methyl-indan-1-yl)-4,5,6,7-tetrahydro-1H-pyrazolo[4,3-c]pyridin-3-yl]-benzonitrile] |
| 500 | CC(=O)N1CCc2c(c(-c3cccc(C#N)c3)nn2[C@@H]2c3cc(F)cc(C4CC4)c3C[C@H]2O)C1 [Example 20a, 3-[5-Acetyl-1-((1R,2R)-4-cyclopropyl-6-fluoro-2-hydroxy-indan-1-yl)-4,5,6,7-tetrahydro-1H-pyrazolo[4,3-c]pyridin-3-yl]-benzonitrile] |
| 393 | CC(=O)N1CCc2c(c(-c3cccc(C#N)c3)nn2[C@@H]2c3cc(F)cc(Cl)c3C[C@H]2O)C1 [Example 21a, 3-[5-Acetyl-1-((1R,2R)-4-chloro-6-fluoro-2-hydroxy-indan-1-yl)-4,5,6,7-tetrahydro-1H-pyrazolo[4,3-c]pyridin-3-yl]-benzonitrile] |
